Results reported in patent US12187701B2, “Taire family kinase inhibitors and uses thereof” (Dana-Farber Cancer Institute, Inc., priority 2018, dated 2025).

Assays:
[1] = molecular target: T1, Cdk14 (Homo sapiens (Human), UniProt O94921); assay: Cellular pull down with biotinylated probe, CDK14; assay type: cell-based; conditions: HEK293 cells overexpressing Cdk14-flag
Procedure: HEK293 cells overexpressing a Cdk14-flag fusion protein were treated with candidate compounds for 4 hours. Cells were washed with PBS, harvested and lysed in Pierce IP buffer with protease and phosphatase inhibitors (Roche). […] To enhance pulldown, lysates were incubated at room temperature for an additional 2 hours. […] Beads were then washed 3 times with Pierce IP buffer, then boiled at 95° C. for 5 minutes in 2× LDS+10% β-mercaptoethanol. Proteins of interest engaged by the biotinylated compound were then assessed using western blotting.
Target sequence in this assay (O94921 whole entry, the tested form may be a part): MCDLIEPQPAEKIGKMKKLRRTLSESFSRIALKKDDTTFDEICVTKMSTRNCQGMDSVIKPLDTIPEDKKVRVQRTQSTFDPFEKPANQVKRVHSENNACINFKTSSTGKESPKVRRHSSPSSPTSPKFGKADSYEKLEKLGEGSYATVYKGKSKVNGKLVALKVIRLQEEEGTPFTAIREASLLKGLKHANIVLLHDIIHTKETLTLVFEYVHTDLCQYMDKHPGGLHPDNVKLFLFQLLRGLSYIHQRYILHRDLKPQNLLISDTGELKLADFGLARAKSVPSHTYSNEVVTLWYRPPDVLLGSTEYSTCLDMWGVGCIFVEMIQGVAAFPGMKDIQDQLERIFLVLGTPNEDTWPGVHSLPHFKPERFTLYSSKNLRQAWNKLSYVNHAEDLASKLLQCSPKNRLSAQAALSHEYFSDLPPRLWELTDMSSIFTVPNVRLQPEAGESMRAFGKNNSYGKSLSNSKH

[2] = molecular target: CDK2/CycA (Homo sapiens (Human), UniProt P24941); assay: Z'LYTE kinase assay for CDK2/CycA at Km ATP; assay type: biochemical; conditions: read-out: IC50 CDK2 Z′LYTE kinase assay
[3] = molecular target: T1, Cdk14; assay: Cdk14 33P kinase assay (Reaction Biology Corp.); assay type: biochemical
Target sequence in this assay (O94921 whole entry, looked up, the tested form may be a part): as the sequence (O94921 whole entry, the tested form may be a part) above
Target sequence in this assay (Q8ND76 whole entry partner, looked up, the tested form may be a part): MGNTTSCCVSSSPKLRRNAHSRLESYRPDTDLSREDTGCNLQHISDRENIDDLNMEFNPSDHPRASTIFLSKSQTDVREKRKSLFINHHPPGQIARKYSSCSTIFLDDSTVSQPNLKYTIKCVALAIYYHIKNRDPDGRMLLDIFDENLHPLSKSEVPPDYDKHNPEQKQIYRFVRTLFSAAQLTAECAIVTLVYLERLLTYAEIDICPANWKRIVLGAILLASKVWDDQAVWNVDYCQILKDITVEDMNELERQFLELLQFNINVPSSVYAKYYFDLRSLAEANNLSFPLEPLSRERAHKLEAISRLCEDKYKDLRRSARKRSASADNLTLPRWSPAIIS

[4] = molecular target: Cdk14/CycY (Homo sapiens (Human), UniProt O94921); assay: Lanthascreen Eu kinase binding assay for Cdk14/CycY with 30 minute pre-incubation; conditions: 30 minute pre-incubation of kinase with compound; read-out: IC50 CDK14 binding by Lanthascreen
Procedure: Lanthascreen Eu kinase binding assays were conducted for Cdk14/CycY largely as performed in the commercial assay service by Life Technologies, but included a 30 minute pre-incubation step of the kinase with candidate compounds to facilitate covalent bond formation.

[5] = molecular target: CDK16/CycY (Homo sapiens (Human), UniProt Q00536); assay: Lanthascreen Eu kinase binding assay for CDK16/CycY; conditions: read-out: IC50 CDK16 Lanthascreen binding
Procedure: Lanthascreen Eu kinase binding assays were conducted for CDK16/CycY at Life Technologies.

[6] = test system: HCT116 cells; assay: Antiproliferation assay, Cell Titer Glo, 72 hours; assay type: cell-based; conditions: Homo sapiens, HCT-116, 72 h
In short: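 Luminescent CellTiter-Glo read-out after 72 h compound exposure (four-fold dilutions, 37 °C, 5% CO2) of HCT116 cells plated at 750 cells/well in McCoy's 5A + 10% FBS. Biological quadruplicates; IC50 from non-linear curve fitting.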

[7] = 4 hours treatment, some cells print Y or N instead of a concentration

Chain of CDK16/CycY (Q00536 whole entry): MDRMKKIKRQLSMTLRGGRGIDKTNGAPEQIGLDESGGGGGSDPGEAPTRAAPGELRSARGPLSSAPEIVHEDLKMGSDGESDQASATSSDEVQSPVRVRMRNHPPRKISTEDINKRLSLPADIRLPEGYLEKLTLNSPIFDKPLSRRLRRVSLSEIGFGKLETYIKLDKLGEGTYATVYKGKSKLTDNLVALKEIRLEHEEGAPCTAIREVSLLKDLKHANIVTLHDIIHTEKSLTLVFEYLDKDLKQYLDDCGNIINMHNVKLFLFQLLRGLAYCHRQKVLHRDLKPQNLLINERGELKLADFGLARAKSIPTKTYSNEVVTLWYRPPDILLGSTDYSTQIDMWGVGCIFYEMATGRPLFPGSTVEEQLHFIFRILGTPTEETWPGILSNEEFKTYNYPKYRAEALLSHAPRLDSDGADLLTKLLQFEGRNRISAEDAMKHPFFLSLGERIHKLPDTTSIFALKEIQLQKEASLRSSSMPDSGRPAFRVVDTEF
Chain of CDK16/CycY (Q8ND76 whole entry partner): as the sequence (Q8ND76 whole entry partner, looked up, the tested form may be a part) above
Chain of Cdk14/CycY (O94921 whole entry): as the sequence (O94921 whole entry, the tested form may be a part) above
Chain of Cdk14/CycY (Q8ND76 whole entry partner): as the sequence (Q8ND76 whole entry partner, looked up, the tested form may be a part) above

| Structure (SMILES) | Cellular Potency by Pulldown [1, 7] | IC50 [2] | IC50 [3] | IC50 [4] | IC50 [5] | IC50 [6] | Cellular Potency by Pulldown ([1]; cell prints LOW (>1 uM)) | Cellular Potency by Pulldown ([1]; cell prints LOW (>1 μM)) |
| --- | --- | --- | --- | --- | --- | --- | --- | --- |
| C=CC(=O)Nc1cccc(C(=O)N2CCC(NC(=O)c3n[nH]cc3NC(=O)c3c(Cl)cccc3Cl)CC2)c1 [FMF-03-196-1, N-(1-(3-acrylamidobenzoyl)piperidin-4-yl)-4-(2,6-dichlorobenzamido)-1H-pyrazole-3-carboxamide] | 1000 nM | 3.4 nM | 36.5 nM | 45 nM | 11.4 nM | 32 nM | – | – |
| CN(C)C/C=C/C(=O)Nc1ccc(S(=O)(=O)N2CCC(NC(=O)c3n[nH]cc3NC(=O)c3c(Cl)cccc3Cl)CC2)cc1 [FMF-03-197-2, (E)-4-(2,6-dichlorobenzamido)-N-(1-((4-(4-(dimethylamino)but-2-enamido)phenyl)sulfonyl)piperidin-4-yl)-1H-pyrazole-3-carboxamide] | – | 2.8 nM | 42.8 nM | 2.6 nM | 1.2 nM | 23 nM | – | – |
| CN(C)C/C=C/C(=O)Nc1ccc(CN2CCC(NC(=O)c3n[nH]cc3NC(=O)c3c(Cl)cccc3Cl)CC2)cc1 [FMF-03-199-2, (E)-4-(2,6-dichlorobenzamido)-N-(1-(4-(4-(dimethylamino)but-2-enamido)benzyl)piperidin-4-yl)-1H-pyrazole-3-carboxamide] | – | 24 nM | 786 nM | 14 nM | 18.2 nM | 2.6 nM | – | – |
| C=CC(=O)Nc1cccc(C(=O)Nc2ccc(NC(=O)c3n[nH]cc3NC(=O)c3c(Cl)cccc3Cl)cc2)c1 [FMF-03-205-1, N-(4-(3-acrylamidobenzamido)phenyl)-4-(2,6-dichlorobenzamido)-1H-pyrazole-3-carboxamide] | 500 nM | – | – | 1010 nM | – | 6 nM | – | – |
| CN(C)C/C=C/C(=O)Nc1cccc(C(=O)Nc2ccc(NC(=O)c3n[nH]cc3NC(=O)c3c(Cl)cccc3Cl)cc2)c1 [FMF-03-206-1, (E)-4-(2,6-dichlorobenzamido)-N-(4-(3-(4-(dimethylamino)but-2-enamido)benzamido)phenyl)-1H-pyrazole-3-carboxamide] | 1000 nM | 22.4 nM | 342 nM | 17 nM | 56.8 nM | 37 nM | – | – |
| CN(C)C/C=C/C(=O)Nc1ccc(C(=O)Nc2ccc(NC(=O)c3n[nH]cc3NC(=O)c3c(Cl)cccc3Cl)cc2)cc1 [FMF-04-012-2, (E)-4-(2,6-dichlorobenzamido)-N-(4-(4-(4-(dimethylamino)but-2-enamido)benzamido)phenyl)-1H-pyrazole-3-carboxamide] | – | 52.8 nM | 560 nM | 68 nM | 111 nM | 14 nM | – | – |
| C=CC(=O)Nc1cccc(S(=O)(=O)N2CCC(NC(=O)c3n[nH]cc3NC(=O)c3c(F)cc(F)cc3F)CC2)c1 [FMF-04-095-1, N-(1-((3-acrylamidophenyl)sulfonyl)piperidin-4-yl)-4-(2,4,6-trifluorobenzamido)-1H-pyrazole-3-carboxamide] | – | 7.5 nM | > 1000 nM | 122 nM | – | 7 nM | – | – |
| CN(C)C/C=C/C(=O)Nc1cccc(S(=O)(=O)N2CCC(NC(=O)c3n[nH]cc3NC(=O)c3c(F)cc(F)cc3F)CC2)c1 [FMF-04-095-2, (E)-N-(1-((3-(4-(dimethylamino)but-2-enamido)phenyl)sulfonyl)piperidin-4-yl)-4-(2,4,6-trifluorobenzamido)-1H-pyrazole-3-carboxamide] | 500 nM | 3.7 nM | 380 nM | 10.2 nM | 5.2 nM | 90 nM | – | – |
| C=CC(=O)Nc1cccc(S(=O)(=O)N2CCC(NC(=O)c3n[nH]cc3NC(=O)c3c(F)cccc3F)CC2)c1 [FMF-04-096-1, N-(1-((3-acrylamidophenyl)sulfonyl)piperidin-4-yl)-4-(2,6-difluorobenzamido)-1H-pyrazole-3-carboxamide] | – | – | 284 nM | > 1000 nM | – | 114 nM | – | – |
| CN(C)C/C=C/C(=O)Nc1cccc(S(=O)(=O)N2CCC(NC(=O)c3n[nH]cc3NC(=O)c3c(F)cccc3F)CC2)c1 [FMF-04-096-2, (E)-4-(2,6-difluorobenzamido)-N-(1-((3-(4-(dimethylamino)but-2-enamido)phenyl)sulfonyl)piperidin-4-yl)-1H-pyrazole-3-carboxamide] | 250 nM | 2.6 nM | 268 nM | 3.4 nM | 2.6 nM | 157 nM | – | – |
| C=CC(=O)Nc1cccc(S(=O)(=O)N2CCC(NC(=O)c3n[nH]cc3NC(=O)c3c(F)cccc3OC)CC2)c1 [FMF-04-097-1, N-(1-((3-acrylamidophenyl)sulfonyl)piperidin-4-yl)-4-(2-fluoro-6-methoxybenzamido)-1H-pyrazole-3-carboxamide] | – | – | 88 nM | 1.6 nM | – | 9 nM | – | – |
| COc1cccc(F)c1C(=O)Nc1c[nH]nc1C(=O)NC1CCN(S(=O)(=O)c2cccc(NC(=O)/C=C/CN(C)C)c2)CC1 [FMF-04-097-2, (E)-N-(1-((3-(4-(dimethylamino)but-2-enamido)phenyl)sulfonyl)piperidin-4-yl)-4-(2-fluoro-6-methoxybenzamido)-1H-pyrazole-3-carboxamide] | 250 nM | 3.7 nM | 238 nM | > 1000 nM | 2.8 nM | 174 nM | – | – |
| C=CC(=O)Nc1cccc(S(=O)(=O)N2CCC(NC(=O)c3n[nH]cc3NC(=O)c3c(Cl)cc(Cl)cc3Cl)CC2)c1 [FMF-04-159-1, N-(1-((3-acrylamidophenyl)sulfonyl)piperidin-4-yl)-4-(2,4,6-trichlorobenzamido)-1H-pyrazole-3-carboxamide] | 500 nM | 20.6 nM | 1050 nM | 49 nM | 46.6 nM | 25 nM | – | – |
| C=CC(=O)Nc1cccc(CN2CCC(NC(=O)c3n[nH]cc3NC(=O)c3c(F)cccc3F)CC2)c1 [FMF-04-160-1, N-(1-(3-acrylamidobenzyl)piperidin-4-yl)-4-(2,6-difluorobenzamido)-1H-pyrazole-3-carboxamide] | 500 nM | 165 nM | 1470 nM | 64 nM | 120 nM | 7 nM | – | – |
| C=CC(=O)Nc1cccc(S(=O)(=O)N2CCC(NC(=O)c3n[nH]cc3NC(=O)c3c(Cl)ccc(OC)c3Cl)CC2)c1 [FMF-04-184-1, N-(1-((3-acrylamidophenyl)sulfonyl)piperidin-4-yl)-4-(2,6-dichloro-3-methoxybenzamido)-1H-pyrazole-3-carboxamide] | 100 nM | – | – | 0.4 nM | – | < 1 nM | – | – |
| COc1ccc(Cl)c(C(=O)Nc2c[nH]nc2C(=O)NC2CCN(S(=O)(=O)c3cccc(NC(=O)/C=C/CN(C)C)c3)CC2)c1Cl [FMF-04-184-2, (E)-4-(2,6-dichloro-3-methoxybenzamido)-N-(1-((3-(4-(dimethylamino)but-2-enamido)phenyl)sulfonyl)piperidin-4-yl)-1H-pyrazole-3-carboxamide] | 100 nM | 3.5 nM | – | 6.4 nM | 1.8 nM | 23 nM | – | – |
| C=CC(=O)Nc1cccc(S(=O)(=O)N2CCC(NC(=O)c3n[nH]cc3NC(=O)c3c(OC)cc(OC)cc3OC)CC2)c1 [FMF-05-028-1, N-(1-((3-acrylamidophenyl)sulfonyl)piperidin-4-yl)-4-(2,4,6-trimethoxybenzamido)-1H-pyrazole-3-carboxamide] | – | – | – | 48 nM | – | > 10000 nM | LOW (>1 uM) | – |
| CN(C)C/C=C/C(=O)Nc1ccc(CNC(=O)c2n[nH]cc2NC(=O)c2c(Cl)cccc2Cl)cc1 [FMF-05-064-2, (E)-4-(2,6-dichlorobenzamido)-N-(4-(4-(dimethylamino)but-2-enamido)benzyl)-1H-pyrazole-3-carboxamide] | – | – | – | 108 nM | – | 4700 nM | – | LOW (>1 μM) |
| C=CC(=O)Nc1cccc(CNC(=O)c2n[nH]cc2NC(=O)c2c(Cl)cccc2Cl)c1 [FMF-05-067-1, N-(3-acrylamidobenzyl)-4-(2,6-dichlorobenzamido)-1H-pyrazole-3-carboxamide] | – | – | > 1000 nM | – | – | 8500 nM | – | – |
| COc1cccc(F)c1C(=O)Nc1c[nH]nc1C(=O)NC1CCN(Cc2cccc(NC(=O)/C=C/CN(C)C)c2)CC1 [IHK-01-013-2, (E)-N-(1-(3-(4-(dimethylamino)but-2-enamido)benzyl)piperidin-4-yl)-4-(2-fluoro-6-methoxybenzamido)-1H-pyrazole-3-carboxamide] | – | 53 nM | – | 4.2 nM | 7.4 nM | 77 nM | – | – |
